Source: the kinase profiling compilation of Christmann-Franck et al. (2016)
Several values for one entry are separate records, joined by “and”; a condition that tells them apart may be missing. Equal entries are not always repeated.

What was measured:
Experiment in all cases: radiometric filter-binding kinase assay, Kinase HotSpot
Details in all cases: compound 0.5 µM; ATP 10 µM
BTK (human) = BTK (human) (UniProt Q06187)
MYLK (human) = MYLK (human) (UniProt Q15746)
HIPK1 (human) = HIPK1 (human) (UniProt Q86Z02)
BMX (human) = BMX (human) (UniProt P51813)
RPS6KA2 KD1 KD2 (human) = RPS6KA2 KD1 KD2 (human) (UniProt Q15349)
PRKG1 (human) = PRKG1 (human) (UniProt Q13976)
TLK2 (human) = TLK2 (human) (UniProt Q86UE8)
CSNK2A1 (human) = CSNK2A1 (human) (UniProt P68400)
EPHA5 (human) = EPHA5 (human) (UniProt P54756)
CSK (human) = CSK (human) (UniProt P41240)
MLTK (human) = MLTK (human) (UniProt Q9NYL2)
GRK7 (human) = GRK7 (human) (UniProt Q8WTQ7)
RPS6KA4 KD2 (human) = RPS6KA4 KD2 (human) (UniProt O75676)
MST1R (human) = MST1R (human) (UniProt Q04912)
PLK1 (human) = PLK1 (human) (UniProt P53350)
CDK6 CCND3 (human) = CDK6 CCND3 (human) (UniProt P30281+Q00534)
GRK4 (human) = GRK4 (human) (UniProt P32298)
STK10 (human) = STK10 (human) (UniProt O94804)
DAPK3 (human) = DAPK3 (human) (UniProt O43293)
DMPK (human) = DMPK (human) (UniProt Q09013)
CHEK2 (human) = CHEK2 (human) (UniProt O96017)
DYRK2 (human) = DYRK2 (human) (UniProt Q92630)
FGFR4 (human) = FGFR4 (human) (UniProt P22455)
EPHB4 (human) = EPHB4 (human) (UniProt P54760)
GSK3B (human) = GSK3B (human) (UniProt P49841)
MAP3K8 (human) = MAP3K8 (human) (UniProt P41279)
LYN (human) = LYN (human) (UniProt P07948)
FER (human) = FER (human) (UniProt P16591)
JAK3 JH1 JH2 (human) = JAK3 JH1 JH2 (human) (UniProt P52333)
PNCK (human) = PNCK (human) (UniProt Q6P2M8)
STK3 (human) = STK3 (human) (UniProt Q13188)
SRC (human) = SRC (human) (UniProt P12931)
SGK2 (human) = SGK2 (human) (UniProt Q9HBY8)
NEK3 (human) = NEK3 (human) (UniProt P51956)
MAPK12 (human) = MAPK12 (human) (UniProt P53778)
MARK2 (human) = MARK2 (human) (UniProt Q7KZI7)
AURKA (human) = AURKA (human) (UniProt O14965)
FGFR2 (human) = FGFR2 (human) (UniProt P21802)
PKN1 (human) = PKN1 (human) (UniProt Q16512)
IRAK4 (human) = IRAK4 (human) (UniProt Q9NWZ3)
TYRO3 (human) = TYRO3 (human) (UniProt Q06418)
ULK3 (human) = ULK3 (human) (UniProt Q6PHR2)
Sequence of ULK3 (human) (Q6PHR2 whole entry, looked up): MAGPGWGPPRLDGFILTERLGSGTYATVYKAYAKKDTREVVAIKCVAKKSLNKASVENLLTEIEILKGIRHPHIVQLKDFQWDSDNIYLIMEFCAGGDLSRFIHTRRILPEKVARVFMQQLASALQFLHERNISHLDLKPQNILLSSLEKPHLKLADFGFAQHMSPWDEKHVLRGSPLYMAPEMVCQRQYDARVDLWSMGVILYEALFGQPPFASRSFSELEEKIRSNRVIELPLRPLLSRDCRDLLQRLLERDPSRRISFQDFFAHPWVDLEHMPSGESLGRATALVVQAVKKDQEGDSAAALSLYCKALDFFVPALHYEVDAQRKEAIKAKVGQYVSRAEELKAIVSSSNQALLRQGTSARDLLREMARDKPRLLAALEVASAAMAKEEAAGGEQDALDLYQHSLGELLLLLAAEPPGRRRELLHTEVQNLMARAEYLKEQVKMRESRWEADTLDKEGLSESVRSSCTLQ

Sequence of LYN (human) (P07948 whole entry, looked up): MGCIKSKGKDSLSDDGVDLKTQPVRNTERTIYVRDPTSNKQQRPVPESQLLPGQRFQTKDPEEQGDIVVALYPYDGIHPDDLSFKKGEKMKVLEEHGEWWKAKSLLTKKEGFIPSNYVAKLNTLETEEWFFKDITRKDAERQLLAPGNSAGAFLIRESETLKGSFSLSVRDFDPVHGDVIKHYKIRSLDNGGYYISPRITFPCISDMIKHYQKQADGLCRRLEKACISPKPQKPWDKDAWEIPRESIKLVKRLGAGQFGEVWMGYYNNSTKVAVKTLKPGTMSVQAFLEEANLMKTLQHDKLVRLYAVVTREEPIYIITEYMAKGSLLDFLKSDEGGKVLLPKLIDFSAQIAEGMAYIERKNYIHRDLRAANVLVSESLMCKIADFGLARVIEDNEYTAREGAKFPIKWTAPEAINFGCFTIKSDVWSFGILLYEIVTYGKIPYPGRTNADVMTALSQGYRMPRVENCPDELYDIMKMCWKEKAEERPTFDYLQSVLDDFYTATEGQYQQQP
Sequence of PRKG1 (human) (Q13976 whole entry, looked up): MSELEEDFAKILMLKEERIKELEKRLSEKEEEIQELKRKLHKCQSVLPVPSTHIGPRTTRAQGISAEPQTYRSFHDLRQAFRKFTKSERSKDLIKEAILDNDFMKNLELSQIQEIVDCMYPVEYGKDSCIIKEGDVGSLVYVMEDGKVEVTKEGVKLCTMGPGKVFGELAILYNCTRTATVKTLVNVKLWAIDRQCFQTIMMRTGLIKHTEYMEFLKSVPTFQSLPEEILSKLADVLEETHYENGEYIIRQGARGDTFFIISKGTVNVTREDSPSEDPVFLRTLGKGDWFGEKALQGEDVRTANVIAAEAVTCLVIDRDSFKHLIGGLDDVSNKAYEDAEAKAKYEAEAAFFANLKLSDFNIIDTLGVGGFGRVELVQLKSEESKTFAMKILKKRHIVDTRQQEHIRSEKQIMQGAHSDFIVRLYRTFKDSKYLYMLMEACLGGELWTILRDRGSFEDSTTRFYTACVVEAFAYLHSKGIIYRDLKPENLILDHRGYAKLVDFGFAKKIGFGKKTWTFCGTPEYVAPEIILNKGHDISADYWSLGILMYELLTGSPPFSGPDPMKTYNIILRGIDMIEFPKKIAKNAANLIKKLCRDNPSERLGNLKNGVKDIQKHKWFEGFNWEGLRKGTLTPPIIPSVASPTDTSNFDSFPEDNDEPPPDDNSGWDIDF
Sequence of BMX (human) (P51813 whole entry, looked up): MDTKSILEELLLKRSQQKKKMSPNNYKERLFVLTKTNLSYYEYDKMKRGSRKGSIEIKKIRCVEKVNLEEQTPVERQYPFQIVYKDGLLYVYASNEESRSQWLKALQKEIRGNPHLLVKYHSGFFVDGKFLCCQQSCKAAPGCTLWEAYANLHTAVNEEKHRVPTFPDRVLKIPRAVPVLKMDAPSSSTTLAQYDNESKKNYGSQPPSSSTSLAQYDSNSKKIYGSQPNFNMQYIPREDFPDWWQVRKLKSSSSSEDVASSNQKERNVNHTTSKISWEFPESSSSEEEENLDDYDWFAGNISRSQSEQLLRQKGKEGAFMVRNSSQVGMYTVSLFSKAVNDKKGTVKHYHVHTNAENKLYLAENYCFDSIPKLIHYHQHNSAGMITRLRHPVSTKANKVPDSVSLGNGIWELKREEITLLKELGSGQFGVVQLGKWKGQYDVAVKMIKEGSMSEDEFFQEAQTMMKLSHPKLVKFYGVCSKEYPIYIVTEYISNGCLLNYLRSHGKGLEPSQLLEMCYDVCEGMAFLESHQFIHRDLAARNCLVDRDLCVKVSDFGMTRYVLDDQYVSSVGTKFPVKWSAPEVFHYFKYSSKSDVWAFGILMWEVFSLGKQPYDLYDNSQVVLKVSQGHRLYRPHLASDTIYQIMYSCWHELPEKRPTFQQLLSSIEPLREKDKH
Sequence of FGFR2 (human) (P21802 whole entry, looked up): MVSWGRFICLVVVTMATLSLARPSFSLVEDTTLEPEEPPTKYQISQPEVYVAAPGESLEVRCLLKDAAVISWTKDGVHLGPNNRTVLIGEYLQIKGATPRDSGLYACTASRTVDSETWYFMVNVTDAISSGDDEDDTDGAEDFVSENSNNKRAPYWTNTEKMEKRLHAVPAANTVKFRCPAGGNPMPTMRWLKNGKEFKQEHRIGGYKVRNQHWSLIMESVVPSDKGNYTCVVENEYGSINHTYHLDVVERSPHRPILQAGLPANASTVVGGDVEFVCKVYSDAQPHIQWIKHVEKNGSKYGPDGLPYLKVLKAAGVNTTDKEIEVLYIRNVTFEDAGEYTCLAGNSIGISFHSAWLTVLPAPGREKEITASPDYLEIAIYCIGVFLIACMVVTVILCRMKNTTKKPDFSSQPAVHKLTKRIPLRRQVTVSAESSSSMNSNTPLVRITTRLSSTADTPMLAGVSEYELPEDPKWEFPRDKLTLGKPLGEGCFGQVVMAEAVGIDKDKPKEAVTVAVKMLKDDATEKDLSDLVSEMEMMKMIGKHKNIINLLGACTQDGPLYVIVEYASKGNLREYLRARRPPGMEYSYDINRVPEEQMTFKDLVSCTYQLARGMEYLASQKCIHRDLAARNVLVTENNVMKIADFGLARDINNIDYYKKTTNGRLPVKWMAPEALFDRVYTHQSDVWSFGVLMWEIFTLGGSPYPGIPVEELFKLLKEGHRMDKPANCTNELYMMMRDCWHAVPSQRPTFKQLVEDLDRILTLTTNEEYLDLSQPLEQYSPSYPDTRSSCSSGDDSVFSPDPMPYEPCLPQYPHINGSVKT
Sequence of PLK1 (human) (P53350 whole entry, looked up): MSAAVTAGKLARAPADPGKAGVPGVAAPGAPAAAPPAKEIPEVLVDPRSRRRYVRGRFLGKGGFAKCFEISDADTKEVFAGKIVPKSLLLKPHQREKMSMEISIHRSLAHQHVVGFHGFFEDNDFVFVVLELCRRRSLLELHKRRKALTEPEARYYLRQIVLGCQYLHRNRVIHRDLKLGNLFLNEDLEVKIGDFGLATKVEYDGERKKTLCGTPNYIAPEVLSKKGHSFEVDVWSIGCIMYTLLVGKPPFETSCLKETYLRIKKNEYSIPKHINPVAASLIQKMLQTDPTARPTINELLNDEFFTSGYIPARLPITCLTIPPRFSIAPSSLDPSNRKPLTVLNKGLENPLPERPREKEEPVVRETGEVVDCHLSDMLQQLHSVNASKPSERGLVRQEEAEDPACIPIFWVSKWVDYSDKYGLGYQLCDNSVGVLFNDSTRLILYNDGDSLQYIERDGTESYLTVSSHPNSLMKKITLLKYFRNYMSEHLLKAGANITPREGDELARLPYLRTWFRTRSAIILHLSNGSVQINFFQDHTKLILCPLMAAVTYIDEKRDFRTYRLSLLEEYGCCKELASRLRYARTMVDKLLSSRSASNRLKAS
Sequence of PNCK (human) (Q6P2M8 whole entry, looked up): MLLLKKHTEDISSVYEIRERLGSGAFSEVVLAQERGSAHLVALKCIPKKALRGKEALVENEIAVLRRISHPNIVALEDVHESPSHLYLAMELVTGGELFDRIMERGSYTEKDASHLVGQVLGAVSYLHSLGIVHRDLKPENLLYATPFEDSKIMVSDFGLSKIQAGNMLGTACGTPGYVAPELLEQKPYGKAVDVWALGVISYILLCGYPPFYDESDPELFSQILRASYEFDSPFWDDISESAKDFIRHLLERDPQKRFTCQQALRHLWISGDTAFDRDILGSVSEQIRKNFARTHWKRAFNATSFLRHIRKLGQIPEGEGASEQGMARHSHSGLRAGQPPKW
Sequence of FER (human) (P16591 whole entry, looked up): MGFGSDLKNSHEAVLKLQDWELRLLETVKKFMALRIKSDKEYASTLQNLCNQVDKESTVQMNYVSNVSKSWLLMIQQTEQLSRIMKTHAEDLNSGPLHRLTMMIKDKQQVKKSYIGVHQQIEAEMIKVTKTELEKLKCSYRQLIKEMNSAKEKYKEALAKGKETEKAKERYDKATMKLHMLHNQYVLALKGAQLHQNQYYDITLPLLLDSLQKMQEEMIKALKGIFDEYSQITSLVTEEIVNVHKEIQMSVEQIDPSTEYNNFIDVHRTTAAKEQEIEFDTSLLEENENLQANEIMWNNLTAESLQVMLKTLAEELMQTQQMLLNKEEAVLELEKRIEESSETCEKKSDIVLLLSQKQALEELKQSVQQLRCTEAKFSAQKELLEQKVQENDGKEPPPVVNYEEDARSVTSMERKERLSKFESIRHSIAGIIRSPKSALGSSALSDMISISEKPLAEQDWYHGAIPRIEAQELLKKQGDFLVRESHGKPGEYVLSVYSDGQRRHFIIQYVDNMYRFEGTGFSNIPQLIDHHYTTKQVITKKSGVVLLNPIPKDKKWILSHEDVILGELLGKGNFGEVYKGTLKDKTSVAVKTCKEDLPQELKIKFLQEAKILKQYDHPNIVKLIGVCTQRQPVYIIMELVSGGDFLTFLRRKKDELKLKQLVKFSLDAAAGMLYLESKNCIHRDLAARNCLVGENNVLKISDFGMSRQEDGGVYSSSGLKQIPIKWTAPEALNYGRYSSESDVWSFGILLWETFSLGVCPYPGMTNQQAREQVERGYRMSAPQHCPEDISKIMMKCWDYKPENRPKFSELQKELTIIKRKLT

For `Cc1[nH]c(/C=C2\C(=O)Nc3ccc(S(=O)(=O)N(C)c4cccc(Cl)c4)cc32)c(C)c1C(=O)N1CCN(C)CC1`, which residual activity (BTK (human)) is on record?
Its residual activity is 93.1%.

And the residual activity (MYLK (human))?
The residual activity was 84.3%.

And the residual activity (HIPK1 (human))?
The residual activity was 104%.

And the residual activity (BMX (human))?
Its residual activity is 97.3%.

What about the residual activity (RPS6KA2 KD1 KD2 (human)) of the same compound?
The residual activity was 75.4%.

And the residual activity (PRKG1 (human))?
Its residual activity is 93.2% and 97.1%.

And the residual activity (TLK2 (human))?
The residual activity was 95.8%.

And the residual activity (CSNK2A1 (human))?
Its residual activity is 78.8%.

What about the residual activity (EPHA5 (human)) of the same compound?
The residual activity was 96.4%.

What about the residual activity (CSK (human)) of the same compound?
Its residual activity is 78.2%.

What about the residual activity (MLTK (human)) of the same compound?
The residual activity was 97.4%.

What about the residual activity (GRK7 (human)) of the same compound?
The residual activity was 86.7%.

What about the residual activity (RPS6KA4 KD2 (human)) of the same compound?
Its residual activity is 109%.

What about the residual activity (MST1R (human)) of the same compound?
The residual activity was 103%.

And the residual activity (PLK1 (human))?
The residual activity was 96.9%.

And the residual activity (CDK6 CCND3 (human))?
The residual activity was 72.8%.

What about the residual activity (GRK4 (human)) of the same compound?
Its residual activity is 103%.

And the residual activity (STK10 (human))?
The residual activity was 9.05%.

What about the residual activity (DAPK3 (human)) of the same compound?
The residual activity was 106%.

What about the residual activity (DMPK (human)) of the same compound?
The residual activity was 113%.

And the residual activity (CHEK2 (human))?
The residual activity was 85.1%.

What about the residual activity (DYRK2 (human)) of the same compound?
The residual activity was 101%.

What about the residual activity (FGFR4 (human)) of the same compound?
The residual activity was 104%.

What about the residual activity (EPHB4 (human)) of the same compound?
Its residual activity is 95.4%.

And the residual activity (GSK3B (human))?
The residual activity was 96.1%.

What about the residual activity (MAP3K8 (human)) of the same compound?
Its residual activity is 82.9%.

And the residual activity (LYN (human))?
Its residual activity is 39.1% and 53.3%.

And the residual activity (FER (human))?
Its residual activity is 81%.

What about the residual activity (JAK3 JH1 JH2 (human)) of the same compound?
The residual activity was 47%.

What about the residual activity (PNCK (human)) of the same compound?
Its residual activity is 101%.

And the residual activity (STK3 (human))?
The residual activity was 78.6%.

What about the residual activity (SRC (human)) of the same compound?
Its residual activity is 53.3%.

And the residual activity (SGK2 (human))?
Its residual activity is 103%.

What about the residual activity (NEK3 (human)) of the same compound?
Its residual activity is 98.7%.

And the residual activity (MAPK12 (human))?
Its residual activity is 99.8%.

What about the residual activity (MARK2 (human)) of the same compound?
Its residual activity is 44.1%.

And the residual activity (AURKA (human))?
Its residual activity is 27.6%.

And the residual activity (FGFR2 (human))?
Its residual activity is 74.1%.

And the residual activity (PKN1 (human))?
The residual activity was 86.4%.

What about the residual activity (IRAK4 (human)) of the same compound?
The residual activity was 65.5%.

What about the residual activity (TYRO3 (human)) of the same compound?
The residual activity was 34.7%.

And the residual activity (ULK3 (human))?
The residual activity was 55.3%.

Which results are given for `Nc1ncnc2c1c(-c1ccc(Oc3ccccc3)cc1)cn2C1CCCC1`?
residual activity (BTK (human)): 4.56%; residual activity (MYLK (human)): 98.4%; residual activity (HIPK1 (human)): 114%; residual activity (BMX (human)): 10.1%; residual activity (RPS6KA2 KD1 KD2 (human)): 101%; residual activity (PRKG1 (human)): 103% and 96.4%; residual activity (TLK2 (human)): 112%; residual activity (CSNK2A1 (human)): 102%; residual activity (EPHA5 (human)): 108%; residual activity (CSK (human)): 3.4%; residual activity (MLTK (human)): 70.3%; residual activity (GRK7 (human)): 114%; residual activity (RPS6KA4 KD2 (human)): 105%; residual activity (MST1R (human)): 94%; residual activity (PLK1 (human)): 100%; residual activity (CDK6 CCND3 (human)): 97.2%; residual activity (GRK4 (human)): 103%; residual activity (STK10 (human)): 73.1%; residual activity (DAPK3 (human)): 114%; residual activity (DMPK (human)): 136%; residual activity (CHEK2 (human)): 76.6%; residual activity (DYRK2 (human)): 96.5%; residual activity (FGFR4 (human)): 98%; residual activity (EPHB4 (human)): 98.3%; residual activity (GSK3B (human)): 99.2%; residual activity (MAP3K8 (human)): 83.3%; residual activity (LYN (human)): 3.49% and 5.13%; residual activity (FER (human)): 88.1%; residual activity (JAK3 JH1 JH2 (human)): 105%; residual activity (PNCK (human)): 96.2%; residual activity (STK3 (human)): 97.7%; residual activity (SRC (human)): 13.4%; residual activity (SGK2 (human)): 95.4%; residual activity (NEK3 (human)): 98.4%; residual activity (MAPK12 (human)): 97.6%; residual activity (MARK2 (human)): 86.4%; residual activity (AURKA (human)): 76.5%; residual activity (FGFR2 (human)): 78%; residual activity (PKN1 (human)): 104%; residual activity (IRAK4 (human)): 98.5%; residual activity (TYRO3 (human)): 102%; residual activity (ULK3 (human)): 102%
